This series in a line: clinical. As to conditions: for Fa at 4 h / Fa at 8 h / Percent absorption: human, in vivo, topical or ocular; for Fa at 4 h / Fa at 8 h: Percent absorption. How it is done:
An experiment was carried out on 7 subjects who were healthy male adults, 25-39 years old and weighing 50-63 kg each, as mentioned hereinbelow.
The plasters and adhesive tapes so attached to the skin sites were peeled 0 hour, 4 hours and 8 hours after the application and then inserted into 15 ml test tubes, respectively, after which the test tubes were each incorporated with 5 ml of acetone, shaken lightly and allowed to stand overnight at room temperature. […] After the distillation-off of an excess of the diazomethane and ether, the residue so methylated was dissolved in 1 ml of a solution of the internal reference substance in acetone and meansured for absorbability and amount absorbed by means of GC-MF under the conditions as shown in Table 10.
The absorbency and amount absorbed were calculated from the following formulae: [formula]

[1] abbreviates: 1% plaster, […] 1.4 cm, 4 hr, mean ± S.E.
Where [2] appears, read: 1% plaster, […] 1.4 cm, 8 hr, mean ± S.E.
[3] abbreviates: 3% plaster, […] 1.4 cm, 4 hr, mean ± S.E.
The mark [4] stands for this setting: 3% plaster, […] 1.4 cm, 8 hr, mean ± S.E.

We go through two molecules from patent US4455146A, “Novel plasters” (Hisamitsu Pharmaceutical Co., Ltd., priority 1979, dated 1984).

Turning to `COc1ccc2c(c1)c(CC(=O)O)c(C)n2C(=O)c1ccc(Cl)cc1` [Indomethacin], the Amount absorption under setting [1] is 2.30 µg, the Amount absorption under setting [2] was 4.92 ± 1.16 µg, the Amount absorption under setting [3] was 16.67 µg and the Amount absorption under setting [4] was 20.21 ± 2.13 µg. The Fa at 4 h is, setting by setting: under setting [1], 1.27%; under setting [3], 3.52%. The Fa at 8 h is 2.71 ± 0.64% under setting [2] and 4.28 ± 0.45% under setting [4].

Take `CC(C(=O)O)c1ccc(-c2ccccc2)c(F)c1` (stereo not shown) [Flurbiprofen]: the Fa at 4 h is 5.53% and the Fa at 8 h amounted to 6.54 ± 0.99%. Under setting [1], this molecule showed an Amount absorption of 9.05 µg. This molecule also displayed an Amount absorption under setting [2] of 10.70 ± 1.61 µg. Further, the Amount absorption under setting [3] was found to be 41.19 µg. For the same molecule, the Amount absorption under setting [4] was found to be 49.56 ± 6.92 µg. The molecule also came in with a Percent absorption (4 h) of 6.98%. The molecule further showed a Percent absorption (8 h) of 8.40 ± 1.17%.
